US20250136583A1, “NOVEL SALT FORMS OF ISOCHROMAN-IMIDAZOLE STRUCTURED ALPHA-2A ADRENOCEPTOR AGONIST” (ORION CORPORATION, priority 2022, published 2025)
Counter-ions that a name gives are not always drawn.

What was measured:
[1] = Physical stability of the salts (storage at elevated temperature and relative humidity, re-analysis by XRPD); type: physicochemical; details: for Form after stability / Physical stability: solids exposed for 2 or 3 weeks at 40° C. and 70-80% relative humidity; for Form after stability: XRPD; for Physical stability: re-analyzed by XRPD
Procedure: XRPD measurements were performed with the X-ray powder diffractometer Bruker D8 Advance at room temperature, using a copper filled X-ray tube (40 kV×40 mA) as the X-ray source, CuKα (λ=1.5418 Å), a 0.6 mm divergence slit, 2.5° Soller slits on both the primary and secondary beams and the 1-dimensional LynxEye detector (with aperture angle of 2.91593°). Data collection was done in the range of 3.8-33° 2θ with 0.02° increments, at a scan speed of 0.3°/s.
A stability test was carried out for all crystalline salt forms resulted from the salt screen by exposing the solids for 2 or 3 weeks at 40° C. and 70-80% relative humidity. After exposure, the solids were re-analyzed by XRPD, followed by physical stability assessment.

[2] = Chemical stability of the salts (stress at 60° C. and 75% relative humidity, purity by UHPLC); type: physicochemical; details: for Purity (%) of 1 day stress samples / Difference between reference and 1 day stressed sample: 1 day at 60° C. and 75% relative humidity; for Purity (%) of 1 day stress samples / Purity (%) of 14 day stress samples / Purity (%) of reference: UHPLC; for Difference between reference and 1 day stressed sample / Difference between reference and 14 day stressed sample: purity difference, in %; for Purity (%) of 14 day stress samples / Difference between reference and 14 day stressed sample: 14 days at 60° C. and 75% relative humidity; for Purity (%) of reference: unstressed sample; for Chemical stability (in words): summary statement
Procedure: The purity analyses were performed using Agilent UHPLC equipment with PDA/DAD detector at 210 nm wavelength and reverse phase liquid chromatography column Acquity UPLC HSS T3, 100×3.0 mm, 1.8 μm (Waters). The chromatography was performed with gradient run using acetonitrile and phosphate buffer (pH 3.0) as eluents.
The chemical stability of various salts of compound (I) was determined by stressing the salts for 1 and 14 days at 60° C. and 75% relative humidity. The unstressed sample was used as an reference. The purity of the samples were analyzed using UHPLC, and the purity difference between the stressed and reference was calculated.

[3] = listed as 1-Hydroxy-2-naphtoic acid salt

Row | Form after stability [1] | Physical stability [1] | Purity (%) of 1 day stress samples [2] [%] | Difference between reference and 1 day stressed sample [2] | Purity (%) of 14 day stress samples [2] [%] | Difference between reference and 14 day stressed sample [2] | Purity (%) of reference [2] [%] | SMILES | also measured
1 | Form 2 | Unstable |  |  |  |  |  | COc1cccc2c1CCOC2C1=NCCN1 (racemic) [D,L-Lactic acid salt Form 1, 2-(5-methoxyisochroman-1-yl)-4,5-dihydro-1H-imidazole] | Form after stability ([1]; listed as D,L-lactic acid): completely
2 | Form 1 | Stable |  |  |  |  |  | COc1cccc2c1CCOC2C1=NCCN1 (centres unmarked) [1-Hydroxy-2-napthoic acid salt Form 1, 2-(5-methoxyisochroman-1-yl)-4,5-dihydro-1H-imidazole] | Physical stability ([1]; listed as 1-hydroxy-2-napthoic acid): remained stable; Purity (%) of 1 day stress samples [2, 3]: 95.4%; Difference between reference and 1 day stressed sample [2, 3]: 3.5; Purity (%) of 14 day stress samples [2, 3]: 0.6%; Difference between reference and 14 day stressed sample [2, 3]: 98.3; Purity (%) of reference [2, 3]: 98.9%
3 | Amorphous | Unstable |  |  |  |  |  | COc1cccc2c1CCOC2C1=NCCN1 (centres unmarked) [2-Ketoglutaric acid salt Form 1, 2-(5-methoxyisochroman-1-yl)-4,5-dihydro-1H-imidazole] | Form after stability ([1]; listed as 2-ketoglutaric acid): turned into amorphous phase
4 | Form 1 | Stable | 94.7 | 4.4 | 2.7 | 96.5 | 99.1 | COc1cccc2c1CCOC2C1=NCCN1 (centres unmarked) [Adipic acid salt Form 1, 2-(5-methoxyisochroman-1-yl)-4,5-dihydro-1H-imidazole] | Physical stability ([1]; listed as adipic acid): remained stable
5 | Form 2 | Unstable |  |  |  |  |  | COc1cccc2c1CCOC2C1=NCCN1 (centres unmarked) [Cyclamic acid salt Form 1, 2-(5-methoxyisochroman-1-yl)-4,5-dihydro-1H-imidazole] | Form after stability ([1]; listed as cyclamic acid (form 1)): completely
6 |  |  |  |  |  |  |  | COc1cccc2c1CCOC2C1=NCCN1 (centres unmarked) [Cyclamic acid salt Form 2, 2-(5-methoxyisochroman-1-yl)-4,5-dihydro-1H-imidazole] | Form after stability ([1]; listed as cyclamic acid (form 2)): extra peaks in the XRPD pattern
7 | Form 1 | Stable | 99.8 | 0.0 | 99.8 | 0.0 | 99.8 | COc1cccc2c1CCOC2C1=NCCN1 (centres unmarked) [Ethane-1,2-disulfonic acid salt Form 1, 2-(5-methoxyisochroman-1-yl)-4,5-dihydro-1H-imidazole] | Physical stability ([1]; listed as ethane-1,2-disulfonic acid): remained stable; Chemical stability (in words) [2]: good chemical stability
8 | Form 1 | Stable |  |  |  |  |  | COc1cccc2c1CCOC2C1=NCCN1 (centres unmarked) [Fumaric acid salt Form 1, 2-(5-methoxyisochroman-1-yl)-4,5-dihydro-1H-imidazole] | Physical stability ([1]; listed as fumaric acid (form 1)): remained stable
9 | Form 2 | Stable | 97.6 | −0.3 | 98.0 | −0.8 | 97.2 | COc1cccc2c1CCOC2C1=NCCN1 (centres unmarked) [Fumaric acid salt Form 2, 2-(5-methoxyisochroman-1-yl)-4,5-dihydro-1H-imidazole] | Physical stability ([1]; listed as fumaric acid (form 2)): remained stable
10 | Form 1 | Stable | 78.7 | 17.7 | 2.0 | 94.4 | 96.4 | COc1cccc2c1CCOC2C1=NCCN1 (centres unmarked) [Glutaric acid salt Form 1, 2-(5-methoxyisochroman-1-yl)-4,5-dihydro-1H-imidazole] | Physical stability ([1]; listed as glutaric acid): remained stable
11 | Form 1 | Stable | 99.3 | 0.5 | 17.6 | 82.2 | 99.8 | COc1cccc2c1CCOC2C1=NCCN1 (centres unmarked) [Glycolic acid salt Form 1, 2-(5-methoxyisochroman-1-yl)-4,5-dihydro-1H-imidazole] | Physical stability ([1]; listed as glycolic acid): remained stable
12 | Form 1 | Stable | 98.1 | 0.2 | 98.2 | 0.1 | 98.3 | COc1cccc2c1CCOC2C1=NCCN1 (centres unmarked) [Hydrobromic acid salt Form 1, 2-(5-methoxyisochroman-1-yl)-4,5-dihydro-1H-imidazole] | Physical stability ([1]; listed as hydrobromic acid): remained stable; Chemical stability (in words) [2]: good chemical stability
13 | Form 1 + amorphous | Unstable |  |  |  |  |  | COc1cccc2c1CCOC2C1=NCCN1 [L-Aspartic acid salt Form 1, 2-(5-methoxyisochroman-1-yl)-4,5-dihydro-1H-imidazole] | Form after stability ([1]; listed as L-aspartic acid): an amorphous phase with characteristic peaks of the counter-ion
14 | extra peaks in the XRPD pattern |  |  |  |  |  |  | COc1cccc2c1CCOC2C1=NCCN1 [L-Glutamic acid salt Form 1, 2-(5-methoxyisochroman-1-yl)-4,5-dihydro-1H-imidazole] | 
15 | Amorphous | Unstable |  |  |  |  |  | COc1cccc2c1CCOC2C1=NCCN1 (centres unmarked) [Methanesulfonic acid salt Form 1, 2-(5-methoxyisochroman-1-yl)-4,5-dihydro-1H-imidazole] | Form after stability ([1]; listed as methanesulfonic acid): turned into amorphous phase
16 | Form 1 + Form 2 |  |  |  |  |  |  | COc1cccc2c1CCOC2C1=NCCN1 (centres unmarked) [Saccharin salt Form 1, 2-(5-methoxyisochroman-1-yl)-4,5-dihydro-1H-imidazole] | Crystalline form conversion on storage ([1]; 40° C., 75% RH for 3 weeks): partially conversion into form 2; Form after stability ([1]; listed as saccharin (form 1)): changed partially
17 | Form 2 | Stable |  |  |  |  |  | COc1cccc2c1CCOC2C1=NCCN1 (centres unmarked) [Saccharin salt Form 2, 2-(5-methoxyisochroman-1-yl)-4,5-dihydro-1H-imidazole] | Physical stability ([1]; listed as saccharin (form 2)): remained stable
18 |  |  | 95.0 | 2.1 | 91.5 | 5.6 | 97.1 | COc1cccc2c1CCOC2C1=NCCN1 (centres unmarked) [Saccharin salt, 2-(5-methoxyisochroman-1-yl)-4,5-dihydro-1H-imidazole] | 
